The values below come from patent publication US5051419A, “Prevention or elimination of mycoplasma contamination of animal or plant cell cultures” (Dainippon Pharmaceutical Co., Ltd., priority 1988, dated 1991).

For one experiment, the system named is A. laidlawii PG8. Briefly: Anti-mycoplasmal activity (MIC), agar-dilution method. The class given is cell-based. To be noted: Acholeplasma laidlawii; agar dilution; A. laidlawii PG8; read-out: MIC. As to the method:
The minimum growth inhibitory concentrations (MIC; μg/ml) of the test chemicals were measured by the agar-dilution method.
(1) Preparation of a mycoplasma suspension for inoculation
A stored frozen suspension of mycoplasma (0.2 to 0.3 ml) was inoculated in 2 to 3 ml of a preculture medium to be described later. It was serially diluted tenfold until the dilution ratio reached 10,000 times. These diluted solutions were cultivated at 37° C. for 2 to 7 days. A culture having the highest dilution ratio was selected from those cultures in which a color change of the media was noted as a result of mycoplasma growth. It was diluted to 100 times with the preculture medium to prepare a mycoplasma suspension for inoculation.
The following preculture media were used.
For Mycoplasma pneumoniae and Acholeplasma laidlawii, Chanock liquid medium containing 0.5% glucose (pH 7.8) [Library of Bacteriology 2, "Procedures for Isolation and Identification of Human, Animal and Plant Mycoplasmas", edited by Japanese Society for Bacteriology, page 8 (1982), Saikon Publishing Co.] was used.
(2) Preparation of agar plates containing the test chemicals
A 1,000 μg/ml aqueous solution of each test chemical was prepared (a difficultly-soluble chemical was dissolved by adding an equimolar amount of sodium hydroxide; the same applies hereinafter). The solution was used as a base solution and its twofold serial dilutions were prepared. The diluted solutions were pipetted on plastic petri dishes each in an amount of 1 ml. The Chanock agar medium (for Mycoplasma hyorhinis, 0.5% mucin was further added) described at page 9 of the above cited "Procedures for Isolation and Identification of Human, Animal and Plant Mycoplasmas" was heated and kept at 55° C. and put in an amount of 9 ml in each of the petri dishes containing the test chemicals and fully mixed with the test chemicals to prepare agar plates containing the test chemicals.
The mycoplasma suspension for inoculation prepared by the procedure described in section (1) was inoculated in an amount of about 3 microliters on each of the chemical-containing agar plates by means of a Cathra-replicator (3 mm pin). The plates on which Mycoplasma pneumoniae, Mycoplasma arginini, and Acholeplasma laidlawii and Mycoplasma hyorhinis were inoculated were tightly packed in a plastic bag together with the plasic petri dishes including water-immersed absorbent cotton. Mycoplasma pneumoniae was aerobically cultivated at 37° C. under highly humid conditions for 7 days; and Mycoplasma arginini and Acholeplasma laidlawii, for 2 days. The other mycoplasma species were cultivated anaerobically for 2 days by using a GasPak anaerobic system (BBL). After the cultivation, growth of mycoplasma were observed under an OLYMPUS microscope (20-100 X). The lowest concentration of the test chemical at which no growth of mycoplasma was noted is defined as MIC.

The subject of experiment [1] is mycoplasma. Briefly: Anti-mycoplasmal activity (MIC, MMC), liquid dilution method, all species of Table 2 together. The format is cell-based. To be noted: in words. On the procedure: The minimum growth inhibitory concentration (MIC, μg/ml) and minimum mycoplasmacidal concentration (MMC, μg/ml) of test chemicals were measured by the liquid dilution method. The method of measuring MIC in this example differs from that used in Test Example 1.
A 1,000 μg/ml aqueous solution of a test chemical was prepared, and diluted to 5 times with a preculture medium. The dilution (200 μg/ml) was serially diluted twofold with the same medium in a 8-well reservoir. Fifty microliters of each diluted solution was distributed in the wells of a microplate. A well to which no test chemical was added was used as a control.
A mycoplasma suspension for inoculation prepared as in Test Example 1 was pipetted in an amount of 50 microliters to each of the wells. The microplates were sealed by a plate seal, shaken by a micromixer, and cultivated at 37° C. for 5 days. […] At this time, 3 microliters of the liquid culture was inoculated in drug-free Chanock agar medium by using a Cathra-replicator. The liquid culture and the agar medium were further cultivated at 37° C. for 3 days (anaerobically in the case of M. orale, and aerobically in the case of A. laidlawii and M. arginini). MIC and MMC were determined from the results of observation on the 5th day. MIC was defined as the lowest concentration of the test chemical at which growth of mycoplasma in the drug-containing liquid medium was not noted, and MMC, as that in the drug-free agar medium.

Another experiment deals with A. laidlawii PG-8. Briefly: Activity of eliminating artificially contaminated mycoplasma from L-929 cells. The class given is cell-based, Acholeplasma laidlawii. As to the method: (§1) Animal cells, experimentally contaminated by mycoplasma, were cultivated for 4 days in a medium containing the test chemical and then sub-cultivated in a medium to which the test chemical was not added in order to determine whether the mycoplasma re-grew (re-contamination).
(§2) (1) Preparation of mycoplasma-contaminated cells
(§3) The mycoplasmas described in Table 3 were each pre-cultivated as in Test Example 1, (1). Two milliliters of the cultures were centifuged at 1,500×g for 30 minutes to separate the mycoplasmas. The isolated mycoplasmas were suspended in 2 ml of 10%-FBS-MEM medium (Eagle's minimum essential medium supplemented with 10% fetal bovine serum and 100 U/ml of penicillin G).
(§4) Separately, mouse fibroblast cells L-929 was suspended in 10%-FBS-MEM medium so that their density became 2.5×10^4 /ml. Four milliliters of the suspension was put in a petri dish (diameter 6 cm) for tissue culture including two circular cover glasses (diameter 1.8 cm), and then 1 ml of the mycoplasma suspension described above was added. The mixture was incubated at 37° C. in 5% CO2 humidified atmosphere for 3 days, and then sub-cultivated twice in order to obtain mycoplasma-contaminated cells. Mycoplasma-contamination was confirmed by the highly specific DNA-fluorochromic staining method (the above cited "Procedures for Isolation and identification of Human, Animal and Plant Mycoplasmas", pages 95-97).
(§5) (2) Experiment of eliminating mycoplasma contamination
(§6) Mycoplasma-contaminated L-929 cells were cultivated as described in the preceding section. A 1,000 μg/ml aqueous solution of a test chemical was prepared, and diluted to predetermined concentrations with Eagle's minimum essential medium. The diluted solutions were added to the culture medium. Two petri dishes were used for each concentration of the test chemical, and two circular cover glasses were put in one of them for examination of mycoplasma. No cover glass was put in the other petri dish, and it was used for subcultivation. Cultivation in the test chemical-containing medium was carried out for 4 days, and thereafter, the cultivation was continued for 3 weeks in a drug-free medium. Medium replacement was effected every 3 to 4 days, and subcultivation was carried out once a week. Examination for mycoplasma contamination was performed on the 4th and 7th days, and thereafter every week. The mycoplasmas were detected by the highly specific DNA-fluorochromic staining method.

Experiment [2] deals with mycoplasma. Put plainly: Activity of eliminating artificially contaminated mycoplasma from L-929 cells, Test Example 3 as a whole. The format is cell-based. To be noted: for minimal effective concentration: Mycoplasma, L929, 96 h, L-929 cells, 4 days of treatment, read-out: effective concentration for eliminating mycoplasma contamination. As to the method: as §1, §2, §3, §4, §5, §6

In brackets after ≈: the same amount, converted by molar mass.

For the compound `CC1CN(c2c(F)c(N)c3c(=O)c(C(=O)O)cn(C4CC4)c3c2F)CCN1` (centres unmarked) [Compound 1], the MIC with A. laidlawii PG8 was 0.1 µg/mL (≈ 0.264 µM). The “MIC compared with MMC” value in the experiment with mycoplasma [1] (Table 2) is reported as “identical with their MMC values”. Further, the “mode of action at the MIC” value in the experiment on mycoplasma [1] (Table 2) was “act mycoplasmacidally at the MICs”. Moreover, the mycoplasma elimination result is given as “+” in the experiment with A. laidlawii PG-8 (0.2 μg/ml, day 0); “+” in the experiment with A. laidlawii PG-8 (0.2 μg/ml, day 4); “+” with A. laidlawii PG-8 (0.2 μg/ml, day 7); “+” in the experiment on A. laidlawii PG-8 (0.2 μg/ml, day 14); “+” with A. laidlawii PG-8 (0.2 μg/ml, day 28); “+” in the experiment on A. laidlawii PG-8 (0.39 μg/ml, day 0). Moreover, the mycoplasma elimination entry with A. laidlawii PG-8 (0.39 μg/ml, day 4) is “-”; with A. laidlawii PG-8 (0.39 μg/ml, day 7), “-”; in the experiment with A. laidlawii PG-8 (0.39 μg/ml, day 14) it was “-”; in the experiment on A. laidlawii PG-8 (0.39 μg/ml, day 28) it was “-”. The minimal effective concentration in the experiment with mycoplasma [2] (both species) is 0.39 µg/mL. Also, the “activity of eliminating mycoplasma contamination” value in the experiment with mycoplasma [2] (in words) is recorded as “also showed the activity of eliminating mycoplasma contamination”. Also, the “effective concentration relative to compound A” value in the experiment with mycoplasma [2] (in words) is listed as “twice that of compound A”.

Turning to `CN(C)c1ccc(O)c2c1C[C@H]1C[C@H]3[C@H](N(C)C)C(O)=C(C(N)=O)C(=O)[C@@]3(O)C(O)=C1C2=O` [Compound 3, minocycline], the MIC with A. laidlawii PG8 was 0.2 µg/mL (≈ 0.437 µM). In the experiment with mycoplasma [1] (Table 2), the “mode of action at the MIC” value is “acts bacteriostatically, and not mycoplasmacidally, at its MIC”. For the same compound, the mycoplasma elimination entry in the experiment on A. laidlawii PG-8 (12.5 μg/ml, day 0) is “+”; with A. laidlawii PG-8 (12.5 μg/ml, day 4), “-”; in the experiment on A. laidlawii PG-8 (12.5 μg/ml, day 7), “+”; in the experiment with A. laidlawii PG-8 (12.5 μg/ml, day 14), “+”; with A. laidlawii PG-8 (12.5 μg/ml, day 28), “+”. The “elimination of mycoplasma and re-growth after removal” value in the experiment with mycoplasma [2] (12.5 μg/ml, 4 days, then drug removed, in words) is “the cells were mycoplasma-negative after 4 days of cultivation, but when the chemical was removed thereafter, re-growth of mycoplasma was observed”.

`NCC1CN(c2c(F)c(N)c3c(=O)c(C(=O)O)cn(C4CC4)c3c2F)CCO1` (centres unmarked) [Compound A, 5-amino-7-(2-aminomethylmorpholino)-1-cyclopropyl-6,8-difluoro-1,4-dihydro-4-oxoquinoline-3-carboxylic acid]: the MIC in the experiment on A. laidlawii PG8 is 0.0125 µg/mL (≈ 0.0317 µM). Further, the “MIC compared with MMC” value against mycoplasma [1] (Table 2) is recorded as “identical with their MMC values”. In the experiment on mycoplasma [1] (Table 2), the “anti-mycoplasmal activity compared with control compounds” value is “better than those of the control compounds”. In addition, in the experiment with mycoplasma [1] (Table 2), the “mode of action at the MIC” value is recorded as “act mycoplasmacidally at the MICs”. In the experiment with mycoplasma [1] (summary), the “mycoplasmacidal activity, overall” value is listed as “excellent mycoplasmacidal activity”. For the same compound, the mycoplasma elimination result was “+” with A. laidlawii PG-8 (0.1 μg/ml, day 0); “-” in the experiment with A. laidlawii PG-8 (0.1 μg/ml, day 4); “+” with A. laidlawii PG-8 (0.1 μg/ml, day 7); “+” in the experiment with A. laidlawii PG-8 (0.1 μg/ml, day 14); “+” in the experiment with A. laidlawii PG-8 (0.1 μg/ml, day 28); “+” in the experiment with A. laidlawii PG-8 (0.2 μg/ml, day 0). The mycoplasma elimination result with A. laidlawii PG-8 (0.2 μg/ml, day 4) is recorded as “-”; in the experiment on A. laidlawii PG-8 (0.2 μg/ml, day 7), “-”; with A. laidlawii PG-8 (0.2 μg/ml, day 14) it was “-”; in the experiment on A. laidlawii PG-8 (0.2 μg/ml, day 28), “-”. Besides, in the experiment with mycoplasma [2] (0.2 μg/ml, both species, in words), the “elimination of mycoplasma and re-growth after removal” value is “gave a mycoplasma negative in 4 days from the start of cultivation, and when thereafter subcultivation was performed in the absence of the compound A, no re-growth of mycoplasmas were noted”. Moreover, in the experiment on mycoplasma [2] (both species), the minimal effective concentration came out at 0.2 µg/mL.

Usually MIC stands for the least concentration at which growth counts as inhibited.
